Experimental data as given in patent publication US5334595A, “Pyrazoloquinolones as anticancer agents” (priority 1992, dated 1994).
Where two headings read alike, the source gives them in different places.

Legend:
[1] = test system: P388 murine leukemia cells; assay: In vitro cytotoxicity, continuous (48-hour) exposure of P388 cells; assay type: cell-based; details: Mus musculus, read-out: in vitro cytotoxicity IC50, cont. exp.
Protocol: In vitro cytotoxicity was assayed by determining cell survival following exposure of P388 murine leukemia cells to a range of test compound concentrations. Cytotoxicity was quantitated following either a one-hour exposure or continuous exposure of P388 cells to test compound.
A Manual of Basic Technique. […] Briefly, following drug exposure cells were plated in soft agar and incubated (37°, 5% CO2) for 7-10 days during which time viable cells form visible colonies. Cytotoxicity following continuous exposure of cells to test compound was assayed by quantitating total P388 cells on a Coultier Counter following a 48-hour co-incubation of test compound with cells. P388 cells were maintained in log phase throughout the duration of cytotoxicity assays.
The percentage of cells surviving relative to an untreated control was graphed as a function of increasing drug concentration.

[2] = In vivo antitumor assay, B16(ip); parameters: species or system mice; details: mouse, in vivo, drug ip
Source text: (§1) Mice: Inbred: C3H/He and NCR-nu; and Hybrids: B6D2F1 (C57BL/6 females×DBA/2 males, CD2F1 (Balb/c females×DBS/2 males) and B6C3fl (C57BL/6×C3H) were bred at Wayne State University from strains obtained from the Frederick Cancer Research Facility, Frederick, Maryland or purchased from commercial suppliers.
(§2) Tumors: Murine Tumor: P388 and an adriamycin-resistant (ADR) subline P388/ADR leukemia and the following transplantable solid tumors of mice were used for in vivo testing: B16 melanoma (B16), pancreatic ductal adenocarcinoma No. 03 (Pane 03), colon adenocarcinoma No. 38 (colo 38), lung carcinoma No. 12 (LC 12), mammary ductal adenocarcinoma No. 16/C (Mam16C) and an adriamycin-resistant subline Mam16C/ADR. Human tumor: A single human tumor, mammary carcinoma MX-1 was used for in vivo testing. All tumors are in the Developmental Therapeutics Program frozen tumor respository, maintained by the Biological Testing Branch, Frederick Maryland. Each has a detailed description, code identification number, and list of references at the National Tumor Repository. Murine tumors were maintained in the mouse strain of origin and were transplanted in the appropriate F1 hydrid (or the strain of origin) for therapy trials. Human mammary carcinoma MX-1 (MX1) was maintained as a subcutaneous implant in either athymic Swiss (Cr: NIH(S)-nu) or athymic random bred (NCR-nu) mice and transplanted in NCR-nu for therapy trials.
(§3) For P388 and P388/ADR leukemia studies the tumor cells were implanted either interperitoneally (IP) or intravenously (IV) on day zero and treatment was started on day one. For B16 melanoma (B16) studies, the tumor cells were implanted IP on day zero and treatment was started on day one. Titered controls were also included to facilitate the calculation of tumor cell kill. For mammary carcinoma MX-1 studies, tumors were implanted with 1) subcutaneously (sc) (14-mg fragment of sc donor tumor) in the axillary region or 2) under the subrenal capsule (SRC) (10×10×10 ocular micrometer unit fragment of sc donor tumor).
(§4) Quantitative end points used to assess antitumor activity included % Increased Life Span (% ILS), Tumor Cell Kill (Log10 kill), and Tumor Growth Inhibition (T/C). Long Term Survivors (45 or 60 day) were excluded from calculations of %ILS and Tumor Cell Kill.
(§5) Endpoints were calculated as follows: [formula] where Dt is the median day of death for treated and Dc is the median day of death for control groups. A % ILS ≥20 or ≥25 for P388 and B16 intraperitoneal models, respectively, is indicative of a significant degree of antitumor activity. A % ILS ≥75 or ≥50 for P388 and B16 intraperitoneal models, , respectively, is indicative of a high degree of antitumor activity and is the level used by National Cancer Institute to justify further development if other requirements are met (termed DN-2 level activity). Minimum quantitative activity limits for additional P388 models (e.g. P388/ADR and P388, IV) have not been defined.

B16 melanoma (B16) = assay: In vivo antitumor assay, B16(ip); parameters: species or system mice; details: drug ip; for ILS %: qd 1,5,9, exp SD-17, at dose of MTD; for Log Kill: qd 1,5,9, exp SD-17, log10
Source text: as §1, §2, §3, §4, §5

[3] = In vivo antitumor assay, MXI(sc); parameters: species or system human; details: mouse, in vivo, drug ip, qd 1,5,9, exp SD-9
Source text: as §1, §2, §3, §4
(§6) Tumors were measured with a caliper once or twice weekly (as needed) until either tumors exceeded 1600 mg or cure was assured. Tumor weights were estimated from two-dimensional measurements: Tumor Weight (mg)=(a×b^2) / 2, where a and b are the tumor length and width (ram) respectively. Measurements were carried out simultaneously in both treatment and control groups. When the control group tumors reached approximately 750-1500 mg in size (median of group), the median tumor weight of each group was determined (including zeros). The T/C value in percent is an indication of antitumor effectiveness. The % T/C was calculated from the following formula for solid murine tumor models: [formula] where T and C are median tumor weights of the treatment and control groups, respectively. […] A T/C value <10% is indicative of a high degree of antitumor activity and is the level used by National Cancer Institute to justify further development if other requirements are met (termed DN-2 level activity). By convention the T/C value for the mammary carcinoma MX-1 models is calculated by the parameter of change in tumor weight . The % T/C was calculated from the following formula for MX-1 models [formula] where ΔT and ΔC are the change in mean tumor weight of the test and control groups, respectively, and T (initial) is the initial mean tumor weight of the test group. […] A reproducible % T/C ≤10 is considered significant activity.

mammary carcinoma MX-1 = assay: In vivo antitumor assay, MXI(sc); parameters: species or system human; details: drug ip, qd 1,5,9, exp SD-9, change in tumor weight
Source text: as §1, §2, §3, §4, §6

[4] = In vivo antitumor assay, P388(ip); parameters: species or system mice; details: mouse, in vivo, qd 1,5,9
Source text: as §1, §2, §3, §4, §5

P388 leukemia = assay: In vivo antitumor assay, P388(ip); parameters: species or system mice; details: qd 1,5,9
Source text: as §1, §2, §3, §4, §5

[5] = P388, continuous exposure (48-hour)
[6] = qd 1,5,9, exp SD-17, MTD not achieved, maximum dose tested

| SMILES | IC50 ([1]; P388, 48 h) | MTD ([2]; qd 1,5,9, exp SD-17) | ILS % (B16 melanoma (B16)) | Log Kill (B16 melanoma (B16)) | MTD [3] | T/C % (mammary carcinoma MX-1) | MTD ([4]; drug ip) | MTD ([4]; drug iv) | ILS % (P388 leukemia; drug ip) | Log Kill (P388 leukemia; drug ip) | ILS % (P388 leukemia; drug iv) | Log Kill (P388 leukemia; drug iv) | IC50 [1, 5] | MTD [2, 6] |
| --- | --- | --- | --- | --- | --- | --- | --- | --- | --- | --- | --- | --- | --- | --- |
| Cc1cc(-c2c(F)cc3c4nn(CCN(C)C)c(=O)c-4cn(C4CC4)c3c2F)cc(C)n1.O=C(O)/C=C/C(=O)O [Example 1, 5-Cyclopropyl-6,8-difluoro-2,5-dihydro-2-[2-(dimethylamino)-ethyl]-7-(2,6-dimethyl-4-pyridinyl)-3H-pyrazolo[4,3-c]quinolin-3-one (E)-2-butendioate (1:1)] | 40 nM | 78 mg/kg | 85% | 1.9 | 78 mg/kg | 37% | 78 mg/kg | 117 mg/kg | 155% | 11 | 170% | 12 | – | – |
| Cc1cc(-c2c(F)cc3c4nn(CCCN(C)C)c(=O)c-4cn(C4CC4)c3c2F)cc(C)n1 [Example 14] | – | 28 mg/kg | 58% | 1.3 | 42 mg/kg | 53% | 42 mg/kg | 64 mg/kg | 85% | 6.1 | 70% | 5.0 | 380 nM | – |
| Cc1cc(-c2c(F)cc3c4nn(CCNCCO)c(=O)c-4cn(C4CC4)c3c2F)cc(C)n1 [Example 17] | – | 180 mg/kg | 61% | 1.4 | 270 mg/kg | 67% | 180 mg/kg | 120 mg/kg | 50% | 3.5 | 5% | 0.35 | 1200 nM | – |
| Cc1cc(-c2c(F)cc3c4nn([C@H]5CC[C@@H](N(C)C)CC5)c(=O)c-4cn(C4CC4)c3c2F)cc(C)n1 [Example 51a] | – | – | 29% | 0.67 | – | – | 9.9 mg/kg | 39.9 mg/kg | 65% | 4.7 | 70% | 5.1 | – | > 15 mg/kg |
| Cc1cc(-c2c(F)cc3c4nn([C@H]5CC[C@H](N(C)C)CC5)c(=O)c-4cn(C4CC4)c3c2F)cc(C)n1 [Example 51b] | – | – | 47% | 1.0 | – | – | 66 mg/kg | 120 mg/kg | 85% | 6.2 | 85% | 6.2 | – | > 99 mg/kg |
